# Measurements published in article PMC10119930, “Dual Molecules Targeting 5-HT6 and GABA-A Receptors as a New Approach to Combat Depression Associated with Neuroinflammation” (ACS Chemical Neuroscience, 2023).
# What was measured:
# BV-2 microglia cells = assay: Anti-inflammatory assessment in LPS-stimulated BV-2 cells (NO, ROS, IL-6, TNF-α); assay type: cell-based, mouse; conditions: 10 μM pretreatment 1 h, then LPS 18 h
# Protocol: Mouse microglial (BV-2) cell line was a generous gift from Prof. Bożena Kamińska-Kaczmarek of the Nencki Institute of Experimental Biology, Polish Academy of Sciences, Warsaw, Poland. The cell culture medium: Dulbecco’s modified with high glucose (DMEM, Glutamx ThermoFisher) and supplemented with 10% inactivated fetal bovine serum heat (ThermoFisher), 100 IU/mL penicillin (Merck) and 100 μg/mL streptomycin (Merck). Cell culture conditions: culture flasks (area 175 cm^2, Nunc), temperature of 37 °C, 5% CO2. For the assessment of the effect of tested compounds on the quantities of reactive oxygen species, nitric oxide, and inflammatory markers, the BV-2 cells were positioned in a 96-well culture plate (5 × 10^4 cells per well, Falcon). In the case of cell membrane damage assay, a 96-well culture plate (2 × 10^4 cells per well, Falcon) was used. The cells were cultured in the incubator (37 °C, 5% CO2) for 24 h prior to the assay. The tested compounds were dissolved in DMSO to achieve the concentration of 10^–2 M. Serial dilutions of the compounds were prepared in PBS and added directly to the medium containing adherent cells. The resulting mixtures were examined for any evidence of precipitation or opalescence before the assay. BV-2 cells were incubated with selected molecules (6, 16 at a concentration of 10 μM) during 1 h. Subsequently, lipopolysaccharide (100 ng/mL) was added and the resulting mixture was incubated for 18 h. Next, the culture supernatant was collected to measure the levels of nitric oxide (NO), reactive oxygen species (ROS), IL-6, and TNF-α according to the procedures described in detail below. All experiments were performed in duplicates, in three independent experiments.
# The quantities of NO produced by the cells were determined using DAN reagent (2,3-diaminonaphthalene), rendering the method protocol described by Nussler et al.[48] After incubating at room temperature for 15 min, the fluorescence intensity (EX 360; EM 440 nm) was measured using a microplate reader POLARstar Omega from BMG Labtech. The amounts of NO were then calculated as a percentage of the control (which represents the maximal response of LPS). ROS measurement. The fluorescent dye 2,7-dichlorodihydrofluorescein diacetate (DCFH-DA)[49] was utilized to determine the quantity of ROS released by BV-2 cells. After a 30 min incubation period at 37 °C with 10 μM DCFH-DA, the fluorescence intensity (EX 490; EM 520 nm) was examined using a microplate reader POLARstar Omega from BMG Labtech. The amounts of ROS were then expressed as a percentage of the control (which represents the maximal response of LPS). The IL-6 and TNF-α levels detected in the culture supernatants were quantified using LANCE Ultra TR-FRET detection kit (PerkinElmer), rendering the manufacturer’s procedure. The detection of IL-6 and TNF-α was performed independently in a 384-well plate according to the instructions provided. To each well of the plate, 15 μL of sample was added followed by the addition of 5 μL of premixed antibody solution. After incubating IL-6 for 1 h and TNF-α for 3 h in the absence of light, at 22 °C, the plates were transferred to an EnVision plate reader (PerkinElmer). Measurements were conducted at 320 nm wavelength for excitation, at 615 nm for donor emission, and at 660 nm for acceptor emission. The final data were determined as the ratio of the 660 nm signal to the 615 nm signal. The results represent the levels of each cytokine determined as a percentage of control (considered as maximal cell response to LPS). The GraphPad program was used to conduct statistical analysis, with all outcomes presented as mean values with standard deviation (SD). Differences between groups were assessed using one-way ANOVA, followed by post hoc analysis (Dunnett’s multiple comparison tests). Results were considered statistically significant if the p-value was less than 0.05. […]
# female Wistar rats = assay: Forced swim test in rats; assay type: in vivo, rat
# Protocol: Naïve female Wistar rats (weighing 180–200 g) were used in the study. The animals were housed in groups of three to four in standard Makrolon cages (37 cm × 21 cm × 15 cm) under strictly controlled laboratory conditions (ambient temperature 21–24 °C, relative humidity 45–65%) with a 12/12 h light–dark regime (light on at 6:00 a.m. and off at 6:00 p.m.). Animals had unrestricted access to tap water and food (typical pellets). Prior the experiment the animals were randomly appointed to the group. The behavioral studies were accomplished between 8:00 a.m. and 5:00 p.m. with the researcher blind to the study. The experiments were performed according to protocols approved by the Local Ethical Committee in Krakow (Approval Number 147/2018), Poland. Housing and experimental procedures were conducted under the European Union Directive of September 22, 2010 (2010/63/EU) and Polish legislation regarding animal studies. All efforts were made to minimize animal suffering and the number of animals used in the study.
# Vortioxetine (Sigma, Germany) and the tested compounds (16 and 6) were dissolved in 10% cyclodextrin and administered ip 30 min before the test or during 14 consecutive days, with the last injection 60 min before the test. 10% cyclodextrin was administrated to control group.
# A modified forced swim test was carried out according to Detke et al.[50],[51] First, the animals were individually placed inside Plexiglas cylinders, which were 40 cm high and 18 cm in diameter, filled with water at a temperature of 23–25 °C for 15 min. Afterward, the rats were transferred to a Plexiglas box and kept under a 60 W bulb for 30 min to dry. The day after, exactly 24 h later, the rats were once again placed in the cylinder, and their duration of immobility, swimming, and climbing was observed and recorded during a 5 min. The swimming behavior involved energetic movements such as horizontal swimming around the cylinder, while climbing activity referred to upward movements of the forepaws along the swim chamber’s side. Immobility was recorded when the rat only made necessary movements to keep its head above the water. For each test, a fresh water was provided. Open field test in rats: The test was conducted as previously reported by our research group.[52] The test was performed in a darkened room employing the Motor Monitor System (Campden Instruments, Ltd., U.K.). The system was equipped with two SmartFrame Open Field stations, each measuring 40 cm × 40 cm × 38 cm and consisting of 16 × 16 beams. These stations were placed inside sound-attenuating chambers and connected to a PC software using […]. The animals, belonging to either the vehicle-injected or drug-injected group, were individually positioned at the center of the station. The Motor Monitor System, which was automated, recorded the animal’s ambulation in both the X and Y axes, as well as the number of rearing and peeping episodes. Additionally, the total distance traveled by each animal during the 5 min test period was also recorded. Statistical analysis: Results are presented as the mean ± SEM values. They were estimated using one-way analysis of variance (ANOVA), followed by Newman–Keuls post hoc or unpaired two-tailed Student t test. Statistical significance was considered when p < 0.05 for differences between groups.
# [1] = acute, 3 mg/kg ip 30 min before test
compound,measurement,setting,value
"Cc1c(OCc2ccccc2)cccc1N1CCN(CCOC(=O)CCCN)CC1.Cl.Cl [Compound 16, 1-(2-((4-Ammoniobutanoyl)oxy)ethyl)-4-(3-(benzyloxy)-2-methylphenyl)piperazin-1-ium Dichloride]",LPS-induced IL-6 production,BV-2 microglia cells,significantly decreased
same,LPS-induced NO production,BV-2 microglia cells,significantly decreased
same,LPS-induced ROS production,BV-2 microglia cells,significantly decreased
same,LPS-induced TNF-α production,BV-2 microglia cells,significantly decreased
same,duration of swimming,female Wistar rats; [1],without affecting the duration of swimming
same,increase of climbing behaviors vs control group,female Wistar rats; [1],336.5%
same,reduction of immobility time vs control group,female Wistar rats; [1],31.9%
same,decrease of immobility time vs vehicle-treated group,"female Wistar rats; subchronic, 3 mg/kg ip for 14 days, test 60 min after last injection",22.9%
